Data reported in patent US12629322B2, “Antiseptic compositions” (RHT LIMITED, priority 2020, dated 2026).

Experiments:
[1] = system: PolySeed BOD Seed Inoculum (blend of broad spectrum bacteria); assay: Durability test of bacteria inhibition (repeated spiking of bacteria on agar plate, swab viable count); assay type: cell-based; settings: bacteria spiked every 60 minutes
Experimental: To evaluate the durability of bacteria inhibition of the exemplary compositions, durability test by regularly spiking a fixed amount of bacteria into the sample is performed and the procedures are incorporated herein by reference.
• Group A: Agar plate with 0.5 mL distilled water; • Group B: Agar plate with 0.5 mL 75% isopropyl alcohol (IPA); • Group C: Agar plate with 0.5 g of tested exemplary composition.
Bacteria strain used: PolySeed® BOD Seed Inoculum Capsules (1 capsule dissolved into 500 mL Distilled Water) (Interlab), which contains a blend of broad spectrum bacteria designed specifically as a seed inoculum for the Biochemical Oxygen Demand (BOD 5) test as conducted in accordance to Standard Methods of the Examination of Water and Wastewater. PolySeed® is an EPA approved BOD 5 seed inoculum that has been used to seed both municipal and industrial wastes for almost 20 years. • Agar: Trypticase Soy Agar (TSA) • Incubation condition: 48 hours at 30±1° C. • Testing Procedure
The above three sample group agar plates are used as the sample matrices of different initial situation for spiking 0.5 ml bacteria solution for every 60 minutes, i.e.: there was an on-going process of spiking bacteria at time 0, 60, 120, 180, 240, 300 minutes;
A swab testing is carried out every 30 minutes from matrix samples of each group to test for the viable count of bacteria at the time interval.
Example of sample with sequence in time: • AM: 0.5 ml bacteria solution is added at T0−10 min; • Sample A1: To swab from AM at T0; Sample A2: To swab from AM at T1; • AM: 0.5 ml bacteria solution is added at T2−10 min; • Sample A3: To swab from AM at T2; Sample A4: To swab from AM at T3; • AM: 0.5 ml bacteria solution is added at T4−10 min; and so forth. Table 2 summarized the testing schedule for durability test.

[2] = system: PolySeed BOD Seed Inoculum (blend of broad spectrum bacteria); assay: Volatility test (duration of bacteria inhibition on agar plate, swab viable count); assay type: cell-based
Experimental: To study the duration on ability of bacteria inhibition of an exemplary composition, a volatility test is performed.
• Group A: Agar plate with 0.5 mL distilled water; • Group B: Agar plate with 0.5 mL 75% isopropyl alcohol (IPA); • Group C: Agar plate with 0.5 g of tested exemplary composition. • Bacteria strain used: PolySeed® BOD Seed Inoculum Capsules (1 capsule dissolved into 500 mL Distilled Water) (Interlab) • Agar: Trypticase Soy Agar (TSA) • Incubation condition: 48 hours at 30±1° C. Testing Procedure
0.5 mL bacteria solution is add into the agar plate groups A, B and C at the time interval of Tx. as defined in Table 1.3.
After T10, bacteria solution is spiked to all the agar plates except agar blank.
Swab test is carried out to test for the viable count of bacteria at the time interval Tx.

75% isopropyl alcohol [75% IPA]
Viable count of bacteria, durability test ([1]; T0 (0 min)): 8 CFU/plate
Viable count of bacteria, durability test ([1]; T1 (30 min)): 28 CFU/plate
Viable count of bacteria, durability test ([1]; T2 (60 min)): 53 CFU/plate
Viable count of bacteria, durability test ([1]; T3 (90 min)): 89 CFU/plate
Viable count of bacteria, durability test ([1]; T4 (120 min)): 254 CFU/plate
Viable count of bacteria, durability test ([1]; T5 (150 min)): 346 CFU/plate
Viable count of bacteria, volatility test ([2]; T0 (0 min)): 54 CFU/plate
Viable count of bacteria, volatility test ([2]; T1 (30 min)): 62 CFU/plate
Viable count of bacteria, volatility test ([2]; T2 (60 min)): 50 CFU/plate
Viable count of bacteria, volatility test ([2]; T3 (90 min)): 45 CFU/plate
Viable count of bacteria, volatility test ([2]; T4 (120 min)): 49 CFU/plate
Viable count of bacteria, volatility test ([2]; T5 (150 min)): 55 CFU/plate
Viable count of bacteria, volatility test ([2]; T6 (180 min)): 43 CFU/plate
Viable count of bacteria, volatility test ([2]; T7 (210 min)): 37 CFU/plate
Viable count of bacteria, volatility test ([2]; T8 (240 min)): 44 CFU/plate
Viable count of bacteria, volatility test ([2]; T9 (270 min)): 49 CFU/plate
Viable count of bacteria, volatility test ([2]; T10 (300 min)): 0 CFU/plate
